Converted amounts (≈) assume the structure as drawn.
What was measured:
Assay type in all cases: cell-based
Porphyromonas gingivalis [1] = assay: MBC determination, plating on blood agar; settings: P. gingivalis, lowest concentration that killed at least 99.9% of initial inoculum, plates 48 hours at 37° C., read-out: MBC (minimum bactericidal concentration)
Procedure: (§1) The MBC (Minimum bactericidal concentrations) were determined using the 96 well microtiter plate serial dilutions as described above for MIC studies. Serial dilution of cultures in wells showing no visible growth were performed and 10 microliters of culture were plated in triplicate on blood agar plates. Viable colonies were scored after incubation of the plates for 48 hours at 37° C. For each test bacterium, the number of CFU/ml were determined in the initial inoculum. The MBC was defined as the lowest concentration of a test compound that killed at least 99.9% of the cells present in the initial inoculum.

Fusobacterium nucleatum [2] = assay: MBC determination, plating on blood agar; settings: F. nucleatum, lowest concentration that killed at least 99.9% of initial inoculum, plates 48 hours at 37° C., read-out: MBC (minimum bactericidal concentration)
Procedure: as §1

Porphyromonas gingivalis [3] = assay: MIC study, 96 well microtiter plate serial dilution; settings: P. gingivalis, 37° C., 48 hours, turbidity at 660 nm, read-out: MIC (minimum inhibitory concentration)
Procedure: (§2) In vitro tests were conducted with a gram positive supragingival plaque bacterium, Streptococcus mutans. In addition, two subgingival plaque bacteria associated with oral malodor were tested, Porphyromonas gingivalis and Fusobacterium nucleatum. The MIC (Minimum Inhibitory Concentrations) study protocol is as follows. Chlorhexidine was used as a positive control and sterile water was used as a negative control. Salicylaldehyde was suspended in 10% methanol with 3.8% Tween 80. […] 96 well microtiter plates were used for this study. Each well contained […] of bacteria, serially diluted agents and bacterial growth medium. All bacterial cultures were incubated at 37° C. and stationary. Bacterial growth was estimated spectrophotometrically at 660 nm, after 48 hours. The MIC for each test bacteria was defined as the minimum concentration of test compound limiting turbidity to […].

Fusobacterium nucleatum [4] = assay: as above; settings: F. nucleatum, 37° C., 48 hours, turbidity at 660 nm, read-out: MIC (minimum inhibitory concentration)
Procedure: as §2

Streptococcus mutans = assay: as above
Procedure: as §2

| SMILES | MBC (Porphyromonas gingivalis [1]) | MBC (Fusobacterium nucleatum [2]) | MIC (Porphyromonas gingivalis [3]) | MIC (Fusobacterium nucleatum [4]) | effectiveness against S. mutans (in words) (Streptococcus mutans) | MIC (Streptococcus mutans; Streptococcus mutans, S. mutans, 37° C., 48 hours, turbidity at 660 nm, read-out: MIC (minimum inhibitory concentration)) |
| --- | --- | --- | --- | --- | --- | --- |
| [H]/N=C(\N/C(=N/[H])NCCCCCCNC(=N)NC(=N)Nc1ccc(Cl)cc1)Nc1ccc(Cl)cc1 [Cholorhexidine, Chlorhexidine, reference compound] | 1.25 µg/mL (≈ 2.47 µM) | 1.25 µg/mL (≈ 2.47 µM) | 1.25 µg/mL (≈ 2.47 µM) | 1.25 µg/mL (≈ 2.47 µM) | – | – |
| O=Cc1ccccc1O [salicylaldehyde] | 250 µg/mL (≈ 2050 µM) | 15.6 µg/mL (≈ 128 µM) | 125 µg/mL (≈ 1020 µM) | 7.8 µg/mL (≈ 63.9 µM) | not exceptionally effective | 1000 µg/mL (≈ 8190 µM) |
